Tests used:
Acute toxicity in mice = details: mouse, in vivo, route not given
Acute toxicity in rats = details: rat, in vivo, route and LD50 not given
trypsin = molecular target: T1, trypsin (Bos taurus, UniProt P00760); assay: In vitro inhibition of trypsin hydrolysis of p-tosylarginine methyl ester; type: biochemical; details: trypsin 0.5 μg, p-tosylarginine methyl ester 20 mM, Tris-HCl pH 8.5, 37° C., 30 minutes; read-out: 50% Inhibition Concentration, Anti-Trypsin
T1 sequence (P00760 24-246): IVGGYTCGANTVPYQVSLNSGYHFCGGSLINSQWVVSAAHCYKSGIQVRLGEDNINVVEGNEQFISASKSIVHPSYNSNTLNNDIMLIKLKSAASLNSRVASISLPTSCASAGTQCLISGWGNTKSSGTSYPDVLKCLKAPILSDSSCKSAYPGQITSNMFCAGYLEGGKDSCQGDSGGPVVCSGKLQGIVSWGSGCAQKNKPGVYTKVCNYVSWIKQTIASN

plasmin = molecular target: T2, plasmin (Homo sapiens, UniProt P00747); assay: In vitro inhibition of plasmin (human euglobulin, streptokinase, fibrinogen); type: biochemical; details: fibrinogen 4%, borate saline pH 7.4, 37° C., 30 minutes, read-out: 50% Inhibition Concentration, Anti-Plasmin
T2 construct: from tissue; host or cells: human euglobulin (blood plasma fraction), with streptokinase added
T2 sequence (P00747 581-810 limits assumed): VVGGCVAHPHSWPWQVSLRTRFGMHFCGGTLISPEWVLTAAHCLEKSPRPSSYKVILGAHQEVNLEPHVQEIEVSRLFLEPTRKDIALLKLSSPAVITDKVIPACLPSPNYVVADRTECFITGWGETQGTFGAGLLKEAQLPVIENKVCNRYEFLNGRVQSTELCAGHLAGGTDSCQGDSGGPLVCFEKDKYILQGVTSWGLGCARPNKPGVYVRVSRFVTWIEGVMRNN
T2 sequence (P00747 97-580 partner limits assumed): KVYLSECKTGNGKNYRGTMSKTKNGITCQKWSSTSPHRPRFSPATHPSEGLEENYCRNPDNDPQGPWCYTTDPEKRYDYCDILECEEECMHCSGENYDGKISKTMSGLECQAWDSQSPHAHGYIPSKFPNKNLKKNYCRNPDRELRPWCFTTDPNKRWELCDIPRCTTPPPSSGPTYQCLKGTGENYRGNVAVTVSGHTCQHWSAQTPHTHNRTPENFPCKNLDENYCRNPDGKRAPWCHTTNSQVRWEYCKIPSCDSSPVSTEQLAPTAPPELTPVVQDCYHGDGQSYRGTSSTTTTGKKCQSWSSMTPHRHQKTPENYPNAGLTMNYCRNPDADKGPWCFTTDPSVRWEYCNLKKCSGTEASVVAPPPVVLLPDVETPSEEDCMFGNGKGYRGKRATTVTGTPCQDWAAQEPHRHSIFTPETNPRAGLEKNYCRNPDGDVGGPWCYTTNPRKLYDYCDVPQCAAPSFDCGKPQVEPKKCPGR
Method: 0.1 ml of human euglobulin (10 fold dilution), 0.1 ml of streptokinase (2000 unit/ml), 0.4 ml of fibrinogen (4% solution), 0.3 ml of a 0.1 M borate saline buffer solution (pH 7.4) and 0.1 ml of a solution of each of the following compounds represented by the formula (I) at various concentrations was allowed to react at a temperature of 37° C. for 30 minutes.

SMILES | LD50 (Acute toxicity in mice) [mg/kg] | LD50 (Acute toxicity in rats) [mg/kg] | IC50 (trypsin) [nM] | IC50 (plasmin) [nM]
CS(=O)(=O)O.N=C(N)Nc1ccc(C(=O)Oc2ccc(CC(=O)O)cc2)cc1 [4-(4-guanidinobenzoyloxy)phenylacetic acid mesylate] | 4500 | 4400 |  | 
N=C(N)Nc1ccc(C(=O)Oc2ccc(CC(=O)O)cc2)cc1 [P-(p-Guanidinobenzoyloxy)phenylacetic Acid] |  |  | 29 | 250
COC(=O)Cc1ccc(OC(=O)c2ccc(NC(=N)N)cc2)cc1 [methyl p-(p-guanidinobenzoyloxy)phenyl acetate] |  |  | 9 | 220

Reference: US4224342A, “Guanidinobenzoic acid compounds and process for preparing the same” (Ono Pharmaceutical Co., Ltd., priority 1977, dated 1980)
